Entries after “also recorded” stand apart in the source; their conditions may differ.
What was measured:
[1] = tested on: intestinal microbiome; assay: Microbiome sequencing of stool samples, principal coordinates analysis (PCoA); type: in vivo, human; details: patients with polyposis nasi; before vs after 2-week ingestion, 200 mg 3 times a day (Soledum forte)
Description: (§1) As part of the studies, the stool samples of patients with polyposis nasi are analyzed under the influence of 1,8-cineole. For this purpose, a stool sample is first taken before starting the administration of 1,8-cineole and then again after 2 weeks of taking 1,8-cineole 3 times a day (Soledum® forte, content of 1,8-cineole: 200 mg).
(§2) Stool Stabilizer (company: Stratec Molecular) is added to the stool samples and initially stored at a temperature of −20° C. until further processing. Subsequent DNA extraction is performed using the PSP Spin Stool DNA Plus kit according to the manufacturer's instructions (Stratec Molecular). Finally, the isolated DNA is used for microbiome sequencing (TG MiSeq Reagent Kit v3 & NEBNext® Library Quant Kit for Illumina) and analyzed.
The results are illustrated in FIG. 1 in the form of principal coordinate analysis (PCoA) of the examined stool samples of the patients (1 to 5) with polyposis nasi before (without labeling, unfilled circle symbols) and after 2-week ingestion of 1,8-cineole (marked with “*”, filled circle symbols).

[2] = tested on: Lachnospiraceae, Bifidobacterium or Faecalibacterium; assay: Microbiome sequencing of stool samples, bacterial genera; type: in vivo, human; details: patients with polyposis nasi; after 2-week therapy, 200 mg 3 times a day
Description: as §1, §2
(§3) Following this initial evaluation regarding existing alterations or changes in the intestinal microbiome of patients with polyposis nasi after 2-week ingestion of 1,8-cineole, a detailed evaluation of the microbiome sequencing performed will be performed regarding the bacterial genera identified.

[3] = tested on: bacterial genus Prevotella; assay: as above; type: in vivo, human; details: patients with polyposis nasi; after 2-week ingestion, 200 mg 3 times a day
Description: as §1, §2, §3

[4] = tested on: bacteria of the family Ruminococcacea or the genus Ruminococcus; assay: as above; type: in vivo, human; details: patients with polyposis nasi; after 2-week ingestion, 200 mg 3 times a day
Description: as §1, §2, §3

[5] = tested on: genus Bacteroides; assay: as above; type: in vivo, human; details: patients with polyposis nasi; after 2-week therapy, 200 mg 3 times a day
Description: as §1, §2, §3

[6] = cited from earlier work
[7] = tested on: Chronic polypous sinusitis; assay: Clinical use in chronic polypous sinusitis; type: in vivo, human
Description: (§4) In addition, the effect of 1,8-cineole is further investigated on the basis of the following areas of application, with 200 mg of 1,8-cineole being administered 3 times a day for the period indicated in each case (Soledum® forte): • 1. Chronic polypous sinusitis • 2. Chronic recurrent catarrhal sinusitis • 3. Chronic polyposis otitis media without cholesteatoma • 4. Chronic polyposis otitis media with cholesteatoma • Ad 1.

[8] = tested on: Chronic recurrent catarrhal sinusitis; assay: Clinical use in chronic recurrent catarrhal sinusitis; type: in vivo, human
Description: as §4

[9] = tested on: Patients with persistent bronchial asthma; assay: Clinical use in persistent bronchial asthma as add-on therapy; type: in vivo, human
[10] = tested on: cellular complexes of circulating platelets (CD41) with leukocytes; assay: Flow cytometry of cellular complexes of circulating platelets with leukocytes in blood; type: in vivo, human; details: for cellular complexes, neutrophils (Neutros), after / cellular complexes, lymphocytes (Lymphos), after / cellular complexes, eosinophils (Eosinos), after / cellular complexes, monocytes (Monos), after: blood of patients with polyposis nasi, after 2-week administration
Description: Further, these cellular complexes will be specified in more detail by flow cytometer with respect to different leukocyte populations and with respect to the influence of 1,8-cineole.

[11] = tested on: patients with polyposis nasi; assay: Patient perception and clinical therapy of polyposis nasi; type: in vivo, human
Description: In addition to the molecular biological investigations, the individual perception and quality of life of the patients with regard to the 2-week intake of 1,8-cineole is also surveyed. […] In 38 patients (23 men/15 women between 28 and 72 years, average age 54 years) each with polyposis nasi a therapy with 1,8-cineole was performed (3 times 200 mg 1,8-cineole in the form of capsules “Soledum® forte”).

[12] = tested on: monocytes circulating in the blood; assay: Flow cytometry of monocyte subtypes (CD14/CD16) in blood; type: in vivo, human
Description: The monocytes circulating in the blood can be divided into the three different subtypes, namely “classical”, “intermediate” and “non-classical”, on the basis of their surface proteins CD14 and CD16 by flow cytometry. In flow cytometry, cells are analyzed for cell size, granularity and fluorescent labeling of specific epitopes by passing specific lasers. This allows different cell populations to be differentiated and characterized. […] These observations are now comprehensively analyzed in additional patients individually by flow cytometer, especially under the influence of 1,8-cineole. […] In this regard, reference can also be made to FIG. 5A/B.

[13] = tested on: Chronic polyposis otitis media without cholesteatoma; assay: Clinical use in chronic polyposis otitis media without cholesteatoma; type: in vivo, human
Description: as §4

[14] = tested on: Chronic polyposis otitis media with cholesteatoma; assay: Clinical use in chronic polyposis otitis media with cholesteatoma; type: in vivo, human
Description: as §4

[15] = 200 mg 3 times a day, 2-week administration, preoperatively
[16] = twelve weeks of continuous therapy
[17] = 38 patients with polyposis nasi, 3 times 200 mg, Soledum forte capsules
[18] = one case, small polyps on the olfactory groove, after 2 weeks
[19] = 2-week administration, preoperatively, previously refractory otorrhea (local and systemic antibiotics)
[20] = after tympanoplasty, renewed otorrhea with recurrent perforation, 4-week administration
[21] = 2-week administration, preoperatively
[22] = after tympanoplasty, renewed otorrhea with recurrent perforation, 4 weeks of administration

CC12CCC(CC1)C(C)(C)O2 [1,8-cineole, 1,3,3-trimethyl-2-oxabicyclo[2.2.2]octane]
shift of beta diversity (PCoA) of stool samples [1]: clear shift
occurrence of Lachnospiraceae, Bifidobacterium or Faecalibacterium [2]: certain changes or shifts with a tendency to increase
presence of Prevotella in the intestine [3]: significantly reduced; also recorded: almost complete disappearance
bacteria of the family Ruminococcacea or genus Ruminococcus [4]: significant increase
occurrence of Bacteroides in the intestinal microbiome [5]: significantly more abundant
solubility in water [6]: insoluble
accompanying symptoms of the polyps (anterior and posterior watery rhinorrhea) [7, 15]: reduction of the accompanying symptoms
olfactory performance ([7]; 200 mg 3 times a day, 2-week administration, preoperatively, individual cases): In individual cases also improvement
wound healing ([7]; postoperative): positive influence
recurrences and systemic cortisone administration ([7]; postoperative, in combination with a nasal steroid): reduction of recurrences and systemic cortisone administration
concomitant symptoms of polyps (anterior and posterior watery rhinorrhea) [8, 15]: decrease in concomitant symptoms
olfactory performance [8, 15]: significant improvement
use of nasal steroids ([8]; postoperative): reduction of nasal steroids
wound healing ([8]; postoperative): positive influence
tolerability ([9]; 4 times 200 mg/die perorally): well tolerated without side effects
lung function ([9]; 4 times 200 mg/die perorally, one week, with inhaled glucocorticoid, long-acting beta-2-sympathomimetic and theophylline): slight to moderate improvement
reduction of inhaled glucocorticoid requirements ([9]; 4 times 200 mg/die perorally, twelve weeks of continuous therapy): more than 50%
glucocorticoid use in some of the patients treated [9, 16]: temporarily discontinued altogether
need for betamimetics in some patients [9, 16]: significantly reduced
cellular complexes, neutrophils (Neutros), after ([10]; Table 2 (data n2), before 5.37%): 5.09%
cellular complexes, lymphocytes (Lymphos), after ([10]; Table 2 (data n2), before 5.4%): 5.12%
cellular complexes, eosinophils (Eosinos), after ([10]; Table 2 (data n2), before 10.7%): 4.8%
cellular complexes, monocytes (Monos), after ([10]; Table 2 (data n2), before 16.8%): 6.28%
cellular complexes, eosinophils (Eosinos), after ([10]; data n1, before 7.3%): 5.92%
cellular complexes, lymphocytes (Lymphos), after ([10]; data n1, before 12.4%): 5.54%
cellular complexes, neutrophils (Neutros), after ([10]; data n1, before 13.9%): 5.02%
cellular complexes, monocytes (Monos), after ([10]; data n1, before 14.7%): 8.79%
monocyte complexes in blood ([10]; patients with polyposis nasi, after taking over a period of two weeks): massive reduction
nasal breathing [11, 17]: correspondingly improved
secretion drainage [11, 17]: significantly improved
nasal polyps [11, 18]: significant decrease
olfactory sensation [11, 18]: marked improvement
patients' response (individual perception and quality of life) ([11]; polyposis patients consulted, 2-week intake): predominantly positive
monocyte distribution, additional patients analysed individually ([12]; additional patients, 2-week therapy (FIG. 5A/B)): restoration of the monocyte distribution
CD16 "classical" monocytes (CD16 neg.) ([12]; after 2-week therapy (FIG. 5A)): significant increase
"intermediate" monocytes (CD16 pos.) ([12]; after 2-week therapy (FIG. 5B)): clear decrease
distribution of monocyte subpopulations ([12]; patients with polyposis nasi, after 2-week intake, compared with healthy donors (FIG. 4)): marked normalization or reversion
otorrhea [13, 19]: decrease in otorrhea, allowing surgery
otorrhea [13, 20]: decrease in otorrhea
tympanic membrane [13, 20]: spontaneous tympanic membrane closure
cholesteatom masses [14, 21]: no reduction
inflamed mucosa of middle ear and mastoid [14, 21]: positive effect
concomitant otorrhea [14, 19]: decrease in concomitant otorrhea, allowing surgery
otorrhea [14, 22]: decrease of otorrhea
tympanic membrane [14, 22]: spontaneous tympanic membrane closure

From patent US20260166000A1, “1,8-CINEOLE CONTAINING COMPOSITION FOR THERAPEUTIC USE” (Maria Clementine Martin Klosterfrau Vertriebsgesellschaft …, priority 2020, published 2026)
